We go through three compounds from DBAASP.

The structures appear in SMILES notation. ≈ marks a conversion by molar mass, not a printed value. Some results are limits rather than exact numbers.

What all share (assay): ≥ marks a high value that may be exact or a test limit, other limits are often not marked, values filed in µg/mL are converted to µM
Experiment [1] concerns Staphylococcus aureus 1303.
Experiment [2] has as its system Pseudomonas aeruginosa 1412.
For experiment [3], the system named is Staphylococcus epidermidis.
Experiment [4] deals with Staphylococcus aureus ATCC 2592.
The subject of experiment [5] is Candida glabrata 0902.
For experiment [6], the system named is Escherichia coli 1334.
The test system of experiment [7] is Staphylococcus aureus.
Experiment [8] deals with Escherichia coli 1342.
Experiment [9] has as its system Cutibacterium acnes ATCC 11827.
For experiment [10], the system named is Candida albicans ATCC 2002.
The subject of experiment [11] is Staphylococcus aureus 1349.
Experiment [12] concerns Pseudomonas aeruginosa 1413.
Experiment [13] relates to Pseudomonas aeruginosa 1411.
For experiment [14], the system named is Escherichia coli ATCC 25922.
In experiment [15] the test system is Pseudomonas aeruginosa ATCC 27853.
Experiment [16] relates to Klebsiella pneumoniae M11245.
In experiment [17] the test system is Staphylococcus hominis M2973.
Experiment [18] relates to Escherichia coli M5306.
In experiment [19] the test system is Escherichia coli M7859.
For experiment [20], the system named is Enterococcus faecalis M6983.
In experiment [21] the test system is Acinetobacter sp. M9665.
Experiment [22] has as its system Klebsiella pneumoniae M9491.
For experiment [23], the system named is Enterococcus gallinarum M2723.
In experiment [24] the test system is Klebsiella pneumoniae PFAV 3.
Experiment [25] relates to Staphylococcus hominis M2967.
The test system of experiment [26] is Acinetobacter sp. M9013.
The test system of experiment [27] is Staphylococcus saprophyticus M4070.
The subject of experiment [28] is Staphylococcus cohnii.
Experiment [29] deals with Enterococcus faecalis ATCC 29212.
Experiment [30] concerns Staphylococcus epidermidis M2921.
Experiment [31] has as its system Acinetobacter sp. M13523.
In experiment [32] the test system is Enterococcus faecalis ATCC 51299.
The subject of experiment [33] is Klebsiella pneumoniae M5825.
The test system of experiment [34] is Staphylococcus epidermidis M2923.
The test system of experiment [35] is Acinetobacter sp. M5949.
Experiment [36] relates to Enterococcus faecalis M4899.
The test system of experiment [37] is Escherichia coli M9209.
Experiment [38] concerns Enterococcus faecium PZAP 95.
The subject of experiment [39] is Pseudomonas aeruginosa M11005.
For experiment [40], the system named is Staphylococcus aureus ATCC 25923.
In experiment [41] the test system is Enterococcus faecium M2304.
Experiment [42] has as its system Staphylococcus warneri.
Experiment [43] deals with Klebsiella pneumoniae M9375.
Experiment [44] deals with Staphylococcus haemolyticus M2976.
In experiment [45] the test system is Staphylococcus aureus M6784.
Experiment [46] relates to Escherichia coli M9884.
Experiment [47] has as its system Staphylococcus aureus P33.
The subject of experiment [48] is Pseudomonas aeruginosa PACO12.
The test system of experiment [49] is Candida albicans ATCC 37092.
Experiment [50] deals with Staphylococcus aureus ATCC 29213.

The term MIC denotes the least concentration at which growth counts as inhibited. Low values mean a more susceptible organism, high ones a less susceptible organism. On to `CC[C@H](C)[C@H](NC(=O)[C@H](Cc1cnc[nH]1)NC(=O)[C@H](CO)NC(=O)CNC(=O)[C@H](CO)NC(=O)CNC(=O)[C@@H](NC(=O)[C@H](CO)NC(=O)[C@H](CCCN=C(N)N)NC(=O)[C@H](CC(C)C)NC(=O)[C@H](CCCCN)NC(=O)[C@H](CCC(N)=O)NC(=O)[C@H](CCCCN)NC(=O)[C@H](CC(C)C)NC(=O)[C@H](CCC(N)=O)NC(=O)[C@@H]1CSSC[C@H](NC(=O)[C@H](CCCCN)NC(=O)CN)C(=O)N[C@@H](CC(N)=O)C(=O)N[C@@H](C(C)C)C(=O)N[C@@H](CC(C)C)C(=O)N1)[C@@H](C)CC)C(=O)NCC(=O)N[C@@H](CO)C(=O)N[C@H](C(=O)N[C@H](C(=O)N[C@@H](CC(C)C)C(=O)N1CCC[C@H]1C(=O)N[C@@H](CCCN=C(N)N)C(=O)NCC(=O)O)C(C)C)C(C)C` [GKCNVLCQLKQKLRSIGSGSHIGSVVLPRG], for which the minimal inhibitory concentration (MIC) in experiment [1] worked out at 4.54 µM (≈ 14.2 µg/mL); in experiment [2], 9.08 µM (≈ 28.5 µg/mL); in [3], 4.54 µM (≈ 14.2 µg/mL); in experiment [4], 2.27 µM (≈ 7.11 µg/mL); in experiment [5], 4.54 µM (≈ 14.2 µg/mL); in experiment [6], 4.54 µM (≈ 14.2 µg/mL). The MIC was 2.27 µM (≈ 7.11 µg/mL) in [7]; 9.08 µM (≈ 28.5 µg/mL) in [8]; 18.2 µM (≈ 57 µg/mL) in [9]; 1.13 µM (≈ 3.54 µg/mL) in experiment [10]; 9.08 µM (≈ 28.5 µg/mL) in [11]; 4.54 µM (≈ 14.2 µg/mL) in experiment [12]. In addition, the minimal inhibitory concentration (MIC) in [13] worked out at 4.54 µM (≈ 14.2 µg/mL); in [14], 2.27 µM (≈ 7.11 µg/mL); in [15], 4.54 µM (≈ 14.2 µg/mL).

Turning to `CC[C@H](C)[C@H](NC(=O)[C@H](CCCN=C(N)N)NC(=O)[C@H](CCC(N)=O)NC(=O)[C@@H](NC(=O)[C@@H](NC(=O)[C@@H](N)CCCN=C(N)N)[C@@H](C)CC)C(C)C)C(=O)N[C@@H](CCCCN)C(=O)N[C@@H](CCCCN)C(=O)N[C@@H](Cc1c[nH]c2ccccc12)C(=O)N[C@@H](CC(C)C)C(=O)N[C@@H](CC(C)C)C(=O)N[C@@H](CCCCN)C(=O)N[C@@H](Cc1c[nH]c2ccccc12)C(=O)N[C@@H](CCCCN)C(=O)N[C@@H](CCCCN)C(=O)N[C@@H](CC(C)C)C(=O)NCC(=O)N[C@@H](Cc1ccc(O)cc1)C(N)=O` [RIVQRIKKWLLKWKKLGY], the MIC in experiment [16] was 3.39 µM (≈ 8 µg/mL); in experiment [17], 1.7 µM (≈ 4 µg/mL); in [18], 27.2 µM (≈ 64 µg/mL); in [19], 6.79 µM (≈ 16 µg/mL); in experiment [20] it was at least 54.3 µM; in experiment [21] it was at least 54.3 µM. Also, the minimal inhibitory concentration (MIC) in experiment [22] was 27.2 µM (≈ 64 µg/mL); in [23], 6.79 µM (≈ 16 µg/mL); in experiment [24], at least 54.3 µM; in experiment [25], 3.39 µM (≈ 8 µg/mL); in experiment [26], 13.6 µM (≈ 32 µg/mL); in [27] it was 3.39 µM (≈ 8 µg/mL). Besides, the MIC is 3.39 µM (≈ 8 µg/mL) in [28]; 54.3 µM (≈ 128 µg/mL) in [29]; 3.39 µM (≈ 8 µg/mL) in experiment [30]; 27.2 µM (≈ 64 µg/mL) in experiment [31]; at least 109 µM in experiment [32]; 13.6 µM (≈ 32 µg/mL) in [33]. In addition, the minimum inhibitory concentration (MIC) in experiment [34] is 6.79 µM (≈ 16 µg/mL); in experiment [35], at least 109 µM; in experiment [36], at least 109 µM; in [37] it was at least 54.3 µM; in experiment [38], 6.79 µM (≈ 16 µg/mL); in experiment [39] it was at least 54.3 µM. The minimum inhibitory concentration (MIC) was 13.6 µM (≈ 32 µg/mL) in experiment [40]; 3.39 µM (≈ 8 µg/mL) in [41]; 3.39 µM (≈ 8 µg/mL) in [42]; 6.79 µM (≈ 16 µg/mL) in experiment [43]; 3.39 µM (≈ 8 µg/mL) in experiment [44]; 13.6 µM (≈ 32 µg/mL) in experiment [14]. Also, the MIC turned out to be 13.6 µM (≈ 32 µg/mL) in experiment [45]; 13.6 µM (≈ 32 µg/mL) in experiment [46]; 27.2 µM (≈ 64 µg/mL) in experiment [15]; 27.2 µM (≈ 64 µg/mL) in experiment [47]; 27.2 µM (≈ 64 µg/mL) in experiment [48].

Consider `CC[C@H](C)[C@H](NC(=O)[C@H](CCCN=C(N)N)NC(=O)[C@@H](N)CCCN=C(N)N)C(=O)N[C@@H](CCCN=C(N)N)C(=O)N1CCC[C@H]1C(=O)N[C@@H](CCCN=C(N)N)C(=O)N1CCC[C@H]1C(=O)O` [RRIRPRP], for which the minimum inhibitory concentration (MIC) in experiment [49] was at least 500 µM; in experiment [50], above 500 µM; in experiment [14], above 500 µM.
